This is an account of results in ChEMBL document CHEMBL1134061, “Synthesis and biological evaluations of condensed pyridine and condensed pyrimidine-based HMG-CoA reductase inhibitors” (Bioorg Med Chem Lett, 2001).

The target in assay [1] is T1, 3-hydroxy-3-methylglutaryl-coenzyme A reductase (Homo sapiens) (UniProt P04035).
T1 sequence (whole entry): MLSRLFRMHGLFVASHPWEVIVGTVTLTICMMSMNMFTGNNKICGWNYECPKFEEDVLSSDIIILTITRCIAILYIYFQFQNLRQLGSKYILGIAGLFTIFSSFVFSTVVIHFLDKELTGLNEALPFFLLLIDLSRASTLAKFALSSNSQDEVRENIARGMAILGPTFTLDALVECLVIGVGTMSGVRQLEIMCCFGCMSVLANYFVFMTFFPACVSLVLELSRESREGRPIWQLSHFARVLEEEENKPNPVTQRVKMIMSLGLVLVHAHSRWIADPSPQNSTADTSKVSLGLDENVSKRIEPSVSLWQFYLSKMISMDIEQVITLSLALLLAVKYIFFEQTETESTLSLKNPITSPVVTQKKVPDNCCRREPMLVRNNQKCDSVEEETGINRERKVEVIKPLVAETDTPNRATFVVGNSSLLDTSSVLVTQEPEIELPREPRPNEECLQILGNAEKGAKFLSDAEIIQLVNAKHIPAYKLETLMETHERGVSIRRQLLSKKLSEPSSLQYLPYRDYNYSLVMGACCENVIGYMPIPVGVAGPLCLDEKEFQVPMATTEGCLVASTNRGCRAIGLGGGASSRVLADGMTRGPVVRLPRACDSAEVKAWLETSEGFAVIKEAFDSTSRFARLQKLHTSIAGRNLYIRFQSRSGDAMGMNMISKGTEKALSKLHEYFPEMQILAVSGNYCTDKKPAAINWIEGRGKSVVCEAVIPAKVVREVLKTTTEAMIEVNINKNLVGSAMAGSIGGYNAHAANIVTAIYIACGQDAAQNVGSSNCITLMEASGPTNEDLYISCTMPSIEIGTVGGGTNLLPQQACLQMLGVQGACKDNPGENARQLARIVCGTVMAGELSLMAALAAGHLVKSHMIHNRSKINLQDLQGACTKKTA
The assay can be described thus: In vitro HMG-CoA reductase inhibitory activity required to inhibit cellular steroidgenesis in Hep G2 cells (human hepatoma cell line) with pravastatin as reference compound. Conditions: HepG2. In kind it is cell-based.

In assay [2] the target is T2, 3-hydroxy-3-methylglutaryl-coenzyme A reductase (Rattus norvegicus) (UniProt P51639).
T2 sequence (whole entry): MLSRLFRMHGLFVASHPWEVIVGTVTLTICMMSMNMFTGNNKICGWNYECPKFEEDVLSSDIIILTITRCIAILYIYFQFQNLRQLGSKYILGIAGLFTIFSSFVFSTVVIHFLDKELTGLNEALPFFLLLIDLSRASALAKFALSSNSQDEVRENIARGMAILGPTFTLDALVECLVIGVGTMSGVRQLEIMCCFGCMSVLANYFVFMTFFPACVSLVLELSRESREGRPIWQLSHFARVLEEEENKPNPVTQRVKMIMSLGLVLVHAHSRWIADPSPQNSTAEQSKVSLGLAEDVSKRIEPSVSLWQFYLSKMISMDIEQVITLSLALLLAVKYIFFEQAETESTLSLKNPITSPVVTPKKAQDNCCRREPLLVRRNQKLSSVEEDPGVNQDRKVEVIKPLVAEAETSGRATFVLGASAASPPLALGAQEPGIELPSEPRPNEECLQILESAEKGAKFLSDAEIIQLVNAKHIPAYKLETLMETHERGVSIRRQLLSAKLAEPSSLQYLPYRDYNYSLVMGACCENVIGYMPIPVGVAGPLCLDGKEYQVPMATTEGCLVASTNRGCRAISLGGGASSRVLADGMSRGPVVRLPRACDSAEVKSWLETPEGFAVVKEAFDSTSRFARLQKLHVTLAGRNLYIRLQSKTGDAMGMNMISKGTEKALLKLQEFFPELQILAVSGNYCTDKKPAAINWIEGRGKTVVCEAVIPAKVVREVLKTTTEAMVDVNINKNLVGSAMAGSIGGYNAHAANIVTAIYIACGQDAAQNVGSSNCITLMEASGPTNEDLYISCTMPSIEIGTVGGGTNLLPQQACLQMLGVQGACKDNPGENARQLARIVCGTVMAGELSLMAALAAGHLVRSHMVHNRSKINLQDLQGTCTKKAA
The assay can be described thus: In vitro rat HMG-CoA reductase inhibitory activity required to inhibit sterol synthesis in cell free system with pravastatin as reference compound.

For assay [3], the target named is T2, 3-hydroxy-3-methylglutaryl-coenzyme A reductase (Rattus norvegicus). The assay can be described thus: In vivo hepatic cholesterol synthesis inhibitory activity in male Sprague-Dawley rat after oral administration at a concentration of 2.0 mg/kg. In kind it is functional, organism-based. Also noted: dose 2 mg/kg.
Assay [4] shares this target. The assay can be described thus: In vivo hepatic cholesterol synthesis inhibitory activity in male Sprague-Dawley rat after oral administration at a concentration of 0.2 mg/kg. Also noted: dose 0.2 mg/kg. In kind it is functional, organism-based.

As a reminder, the inhibition is the drop in the measured response relative to a control, in per cent.

With `COc1ccc(-n2nc(C)c3c(-c4ccc(F)cc4)c(/C=C/[C@@H](O)C[C@@H](O)CC(=O)O)c(C(C)C)nc32)cc1`, the results for the Relative potency in assay [1] and in assay [2] were 149 and 154, respectively. Also, the inhibition in assay [3] is 48.7%.
For `Cc1nn2c(-c3ccc(F)cc3)c(/C=C/[C@@H](O)C[C@@H](O)CC(=O)O)c(C3CC3)nc2c1C`, the figures for the Relative potency in assay [1] and in assay [2] were 3 and 25, respectively.
Turning to `Cc1nn(C(C)(C)C)c2nc(C(C)C)c(/C=C/[C@@H](O)C[C@@H](O)CC(=O)O)c(-c3ccc(F)cc3)c12`, the Relative potency in assay [1] stood at 31; in assay [2], 100. Besides, the inhibition turned out to be 86% in assay [3] and 51.8% in assay [4].
For `Cc1nn(-c2ccccn2)c2nc(C3CC3)c(/C=C/[C@@H](O)C[C@@H](O)CC(=O)O)c(-c3ccc(F)cc3)c12`, the Relative potency in assay [1] worked out at 4; in assay [2], 229.
On to `CCc1c(C)sc2nc(C3CC3)c(/C=C/[C@@H](O)C[C@@H](O)CC(=O)O)c(-c3ccc(F)cc3)c12`, for which the figures for the Relative potency in assay [1] and in assay [2] were 38 and 65, respectively.
Take `CC(C)c1nc2onc(-c3ccccc3)c2c(-c2ccc(F)cc2)c1/C=C/[C@@H](O)C[C@@H](O)CC(=O)O`: the Relative potency in assay [1] stood at 1; in assay [2] it was 83. The inhibition in assay [3] was 52.3%; in assay [4] it was 33.7%.
With `O=C(O)C[C@H](O)C[C@H](O)/C=C/c1c(C2CC2)nc2sc3c(c2c1-c1ccc(F)cc1)CCC3`, the figures for the Relative potency in assay [1] and in assay [2] were 60 and 63, respectively.
With `CC(C)(C)n1nc(C2CC2)c2c(-c3ccc(F)cc3)c(/C=C/[C@@H](O)C[C@@H](O)CC(=O)O)c(C3CC3)nc21`, the Relative potency in assay [1] was 2; in assay [2], 98.
For `CC(C)c1nc2cc(C(C)(C)C)nn2c(-c2ccc(F)cc2)c1/C=C/[C@@H](O)C[C@@H](O)CC(=O)O` the same measures were less than 1 and 4.
On to `Cc1sc2nc(C(C)C)c(/C=C/[C@@H](O)C[C@@H](O)CC(=O)O)c(-c3ccc(F)cc3)c2c1-c1ccccc1`, for which the results for the Relative potency in assay [1] and in assay [2] were less than 1 and 1, respectively.
In the case of `CC(C)c1nc2c(c(-c3ccc(Cl)cc3)nn2C)c(-c2ccc(F)cc2)c1/C=C/[C@@H](O)C[C@@H](O)CC(=O)O`, the Relative potency came to 26 in assay [1] and 93 in assay [2].
On to `CC(C)c1nc2sc(-c3ccccc3)cc2c(-c2ccc(F)cc2)c1/C=C/[C@@H](O)C[C@@H](O)CC(=O)O`, for which the Relative potency was 1 in assay [1] and less than 1 in assay [2].
Consider `CCn1ncc2c(-c3ccc(F)cc3)c(/C=C/[C@@H](O)C[C@@H](O)CC(=O)O)c(C(C)C)nc21`, for which the results for the Relative potency in assay [1] and in assay [2] were 39 and 71, respectively.
With `O=C(O)C[C@H](O)C[C@H](O)/C=C/c1c(C2CC2)nc2sc3c(c2c1-c1ccc(F)cc1)CCCCC3`, the figures for the Relative potency in assay [1] and in assay [2] were 2 and 23, respectively.
For the compound `Cc1cc2nc(C(C)C)c(/C=C/[C@@H](O)C[C@@H](O)CC(=O)O)c(-c3ccc(F)cc3)n2n1`, the figures for the Relative potency in assay [1] and in assay [2] were 3 and 27, respectively. Besides, the inhibition in assay [4] was -6.1%.
Consider `CC(C)c1cc2nc(C3CC3)c(/C=C/[C@@H](O)C[C@@H](O)CC(=O)O)c(-c3ccc(F)cc3)n2n1`, for which the Relative potency in assay [1] worked out at 1; in assay [2], 6. In assay [4], the inhibition was 21.8%.
As to `CC(C)c1nc2c(cnn2-c2ccccc2)c(-c2ccc(F)cc2)c1/C=C/[C@@H](O)C[C@@H](O)CC(=O)O`, the Relative potency was determined as 10 in assay [1] and 228 in assay [2].
For `Cc1noc2nc(C(C)C)c(/C=C/[C@@H](O)C[C@@H](O)CC(=O)O)c(-c3ccc(F)cc3)c12` the same measures were 1 and 170.
For the compound `Cn1nc(-c2ccccc2)c2c(-c3ccc(F)cc3)c(/C=C/[C@@H](O)C[C@@H](O)CC(=O)O)c(C3CC3)nc21`, the Relative potency in assay [1] turned out to be 14; in assay [2], 300. Besides, in assay [3], the inhibition amounted to 11.5%.
For `Cc1cc2nc(C3CC3)c(/C=C/[C@@H](O)C[C@@H](O)CC(=O)O)c(-c3ccc(F)cc3)n2n1`, the results for the Relative potency in assay [1] and in assay [2] were 2 and 24, respectively. Besides, the inhibition in assay [3] was 6.5%.
`Cc1nn(C)c2nc(C(C)C)c(/C=C/[C@@H](O)C[C@@H](O)CC(=O)O)c(-c3ccc(F)cc3)c12`: the Relative potency in assay [1] worked out at 15; in assay [2], 71. Also, the inhibition in assay [3] turned out to be 48.1%; in assay [4], 41.1%.
Consider `CC(C)c1nc2cc(-c3ccco3)nn2c(-c2ccc(F)cc2)c1/C=C/[C@@H](O)C[C@@H](O)CC(=O)O`, for which the Relative potency was less than 1 in assay [1] and 13 in assay [2].
As for `Cc1nn(-c2ccccc2)c2nc(C(C)C)c(/C=C/[C@@H](O)C[C@@H](O)CC(=O)O)c(-c3ccc(F)cc3)c12`, the results for the Relative potency in assay [1] and in assay [2] were 1 and 264, respectively. The inhibition in assay [3] came out at 19.9%; in assay [4] it was 3.3%.
`O=C(O)C[C@H](O)C[C@H](O)/C=C/c1c(C2CC2)nc2sccc2c1-c1ccc(F)cc1`: the Relative potency in assay [1] is 60; in assay [2], 229. For the same compound, the inhibition was found to be 70.6% in assay [3] and 38.1% in assay [4].
As for `Cc1nn2c(-c3ccc(F)cc3)c(/C=C/[C@@H](O)C[C@@H](O)CC(=O)O)c(C3CC3)nc2c1-c1ccccc1`, the Relative potency in assay [1] worked out at 3; in assay [2], 64.
On to `CC(C)(C)n1nc(-c2ccccc2)c2c(-c3ccc(F)cc3)c(/C=C/[C@@H](O)C[C@@H](O)CC(=O)O)c(C3CC3)nc21`, for which the figures for the Relative potency in assay [1] and in assay [2] were less than 1 and 75, respectively.
Take `Cc1cc2c(-c3ccc(F)cc3)c(/C=C/[C@@H](O)C[C@@H](O)CC(=O)O)c(C(C)C)nc2s1`: the Relative potency turned out to be 22 in assay [1] and 68 in assay [2]. In addition, the inhibition in assay [3] was 34.2%.
Turning to `CC(C)c1nc2c(c(C3CC3)nn2-c2ccccc2)c(-c2ccc(F)cc2)c1/C=C/[C@@H](O)C[C@@H](O)CC(=O)O`, the Relative potency in assay [1] worked out at 7; in assay [2], 55.
As to `CC(C)c1nc2sc3c(c2c(-c2ccc(F)cc2)c1/C=C/[C@@H](O)C[C@@H](O)CC(=O)O)CCCC3`, the results for the Relative potency in assay [1] and in assay [2] were 19 and 48, respectively.
For the compound `CC(C)c1nc2sc3c(c2c(-c2ccc(F)cc2)c1/C=C/[C@@H](O)C[C@@H](O)CC(=O)O)CCC3`, the Relative potency amounted to 49 in assay [1] and 58 in assay [2].
Turning to `CC(C)c1nc2c3c(nn2c(-c2ccc(F)cc2)c1/C=C/[C@@H](O)C[C@@H](O)CC(=O)O)CCCC3`, the Relative potency in assay [1] stood at 1; in assay [2], 30.
Turning to `Cc1c2c(-c3ccc(F)cc3)c(/C=C/[C@@H](O)C[C@@H](O)CC(=O)O)c(C(C)C)nc2nn1-c1ccccc1`, the Relative potency amounted to 12 in assay [1] and 162 in assay [2].
Regarding `CC(C)c1cc2c(-c3ccc(F)cc3)c(/C=C/[C@@H](O)C[C@@H](O)CC(=O)O)c(C(C)C)nc2s1`, the Relative potency in assay [1] is 62; in assay [2], 52.
